11 molecules from US4788197A, “Pyrazine derivatives useful as platelet aggregation inhibitors” (Terumo Kabushiki Kaisha, priority 1985, dated 1988) can be followed below.

The target in one test is T1, cycloxygenase (Oryctolagus cuniculus, UniProt O97554).
T1 construct: The washed platelets thus obtained were employed as a cycloxygenase source; from tissue; host or cells: washed rabbit blood platelets
T1 sequence (O97554 31-606): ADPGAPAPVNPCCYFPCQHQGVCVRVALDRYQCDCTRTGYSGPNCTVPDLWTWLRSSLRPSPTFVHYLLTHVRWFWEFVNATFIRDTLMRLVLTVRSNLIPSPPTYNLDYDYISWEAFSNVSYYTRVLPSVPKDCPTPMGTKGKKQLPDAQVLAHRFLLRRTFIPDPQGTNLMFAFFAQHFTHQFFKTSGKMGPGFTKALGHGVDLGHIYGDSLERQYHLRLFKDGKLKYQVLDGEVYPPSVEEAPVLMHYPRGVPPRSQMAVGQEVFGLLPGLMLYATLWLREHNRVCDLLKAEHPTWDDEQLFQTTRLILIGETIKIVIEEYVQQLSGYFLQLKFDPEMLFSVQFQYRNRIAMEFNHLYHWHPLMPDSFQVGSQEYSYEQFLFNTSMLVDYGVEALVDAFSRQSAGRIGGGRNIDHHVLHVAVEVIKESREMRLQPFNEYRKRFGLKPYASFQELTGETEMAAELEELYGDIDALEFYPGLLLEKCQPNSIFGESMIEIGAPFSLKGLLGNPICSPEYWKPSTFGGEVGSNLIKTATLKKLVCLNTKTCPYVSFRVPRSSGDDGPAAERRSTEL
Put plainly: Cycloxygenase inhibiting activity (washed platelets as cycloxygenase source). Type of test: biochemical. As to conditions: washed rabbit platelets, 14C-labelled arachidonic acid, 37° C., 3 minutes; read-out: 50% Inhibitory concentration (cycloxygenase). The method, then: Nine volumes of blood was drawn from the abdominal artery of a rabbit using a syringe containing one volume of 3.8% solution of sodium citrate. Centrifugation of the blood afforded platelet-rich plasma. To the platelet-rich plasma was added 77 mM EDTA solution in a volume of 1/10 per volume of the plasma. The mixture was thoroughly mixed and centrifuged at 2500 rpm for 10 minutes. The supernatant was discarded, and the platelets were suspended in approximately 3 ml of a washing solution which was prepared by dissolving 134 mM of sodium chloride, 15 mM of trisaminomethane, 1 mM of EDTA and 5 mM of D-glucose in twice-distilled water with a pH adjusted with 1N hydrogen chloride to 7.4. The suspension was centrifuged at room temperature at 2000 rpm for 10 minutes. The supernatant was discarded, and the precipitated platelets were re-suspended in a phosphate buffer at pH 8.0 to adjust number of the platelets to 1×10^6 per μl.
The washed platelets thus obtained were employed as a cycloxygenase source.
To 3 μg of arachidonic acid and 0.2 μCi (1 μg) of ^14 C-labelled arachidonic acid placed in a glass-stoppered test tube was added one drop of a propylene glycol/ethanol solution (1:3 by volume). The ethanol was evaporated under nitrogen. To the residue were added 50 μl of a solution to be tested and then 450 μl of the washed platelets. The mixture was reacted at 37° C. for 3 minutes.
To the reaction mixture was added with ice cooling one drop of 1N hydrogen chloride to adjust the pH to 2-3. To the resulting mixture was added 2 ml of ethyl acetate, followed by extraction by shaking for 10 minutes and centrifugal separation at 4° C. at 2500 rpm for 10 minutes.
The supernatant was transferred to a flask and concentrated. The residue was dissolved in 100 μl of ethanol, and the entire solution was spotted on a silica gel thin plate (Merck, 60 F254).
The plate was developed by approximately 18 cm with a developer solution (chloroform/methanol/acetic acid/waters=70:8:1:0.8), followed by measurement by a radiochromatoscanner of the sum of radioactivities of prostaglandin F2α, thromboxan B2, […], prostaglandin D2 and HHT to determine the inhibiting activity.
`COc1ccc(-c2nc(C)c(C)nc2-c2ccc(OC)cc2)cc1` [Example 10, 2,3-bis(p-methoxyphenyl)-5,6-dimethylpyrazine]: the IC50 came out at 62 µM.

Turning to `COc1ccc(-c2ncc(C)nc2-c2ccc(OC)cc2)cc1` [Example 2, 2,3-bis(p-methoxyphenyl)-5-methylpyrazine], the IC50 was determined as 30 µM.

With `COc1ccc(Cc2cnc(-c3ccccc3)c(-c3ccccc3)n2)cc1` [Example 4, 2,3-Diphenyl-5-(p-methoxybenzyl)pyrazine], the IC50 stood at 220 µM.

As to `COc1ccc(-c2ncc(Cc3cccs3)nc2-c2ccc(OC)cc2)cc1` [Example 9, 2,3-Bis(p-methoxyphenyl)-5-(2-thienylmethyl)pyrazine], the IC50 was found to be 86 µM.

Another test relates to platelet aggregation. Put plainly: Platelet aggregation-inhibiting action (Born's turbidimetric method, platelet-rich plasma). The format is cell-based, rabbit. As to conditions: Oryctolagus cuniculus, 0.05 h, aggregation induced by arachidonic acid (50 μmol.), rabbit PRP, 37° C., 3 min incubation, read-out: 50% aggregation inhibitory concentration, Arachidonic acid. The method, then: Nine volumes of blood was drawn from the carotid artery of a rabbit using a syringe containing one volume of 3.8% solution of sodium citrate. The blood was centrifuged to obtain platelet-rich plasma (PRP: 7×10^5 platelets/μl).
In a cuvette was placed 268 μl of the PRP, which was warmed in an isothermic bath at 37° C. for 2 minutes. To the cuvette was added 2 μl of an ethanol solution of a pyrazine derivative to be tested, followed by an incubation for 3 minutes. To the incubate was added a solution of a platelet-aggregation inducer, arachidonic acid or collagen. Measurement was made by Born's turbidimetric method (for example, see J. Physiol., vol. 168, p. 178, 1968). 50% inhibitory concentration for the platelet aggregation caused by arachidonic acid (50 μmol.) or collagen (10 μg/ml) was given in Table 1 using acetylsalicylic acid as the reference.
The 50% inhibitory concentration as shown in table means the concentration of a solution of the pyrazine derivative required for inhibiting the platelet aggregation to 50% when the platelet aggregation in the absence of a pyrazine derivative is taken as 100%.
On to `COc1ccc(-c2ncc(Cc3ccccc3)nc2-c2ccc(OC)cc2)cc1` [Example 6, 2,3-Bis(p-methoxyphenyl)-5-benzylpyrazine], for which the IC50 turned out to be 0.2 µM.

`COc1ccc(-c2nc(C)c(C)nc2-c2ccc(OC)cc2)cc1` [Example 10, 2,3-bis(p-methoxyphenyl)-5,6-dimethylpyrazine]: the IC50 was 0.084 µM.

For `COc1ccc(-c2ncc(C)nc2-c2ccc(OC)cc2)cc1` [Example 2, 2,3-bis(p-methoxyphenyl)-5-methylpyrazine], the IC50 was found to be 0.03 µM.

`COc1ccc(Cc2cnc(-c3ccccc3)c(-c3ccccc3)n2)cc1` [Example 4, 2,3-Diphenyl-5-(p-methoxybenzyl)pyrazine]: the IC50 was determined as 1.7 µM.

With `COc1ccc(-c2ncc(Cc3cccs3)nc2-c2ccc(OC)cc2)cc1` [Example 9, 2,3-Bis(p-methoxyphenyl)-5-(2-thienylmethyl)pyrazine], the IC50 is 0.44 µM.

`Cc1cnc(-c2ccc(Cl)cc2)c(-c2ccc(Cl)cc2)n1` [Example 1, 2,3-bis(p-chlorophenyl)-5-methylpyrazine]: the IC50 amounted to 8.5 µM.

As for `COc1cccc(Cc2cnc(-c3ccccc3)c(-c3ccccc3)n2)c1` [Example 5, 2,3-Diphenyl-5-(m-methoxybenzyl)pyrazine], the IC50 was determined as 4.5 µM.

`COc1ccc(-c2ncc(C(C)C)nc2-c2ccc(OC)cc2)cc1` [Example 7, 2,3-Bis(p-methoxyphenyl)-5-isopropylpyrazine]: the IC50 turned out to be 0.025 µM.

Consider `c1ccc(Cc2cnc(-c3ccccc3)c(-c3ccccc3)n2)cc1` [Example 3, 2,3-diphenyl-5-benzylpyrazine], for which the IC50 amounted to 8 µM.

Turning to `CCc1cnc(-c2ccc(OC)cc2)c(-c2ccc(OC)cc2)n1` [Example 8, 2,3-bis(p-methoxyphenyl)-5-ethylpyrazine], the IC50 was found to be 0.046 µM.

The test is the same for the next values; noted with them: Oryctolagus cuniculus, 0.05 h, aggregation induced by collagen (10 μg/ml), rabbit PRP, 37° C., 3 min incubation, read-out: 50% aggregation inhibitory concentration, Collagen.
Take `COc1ccc(-c2ncc(Cc3ccccc3)nc2-c2ccc(OC)cc2)cc1` [Example 6, 2,3-Bis(p-methoxyphenyl)-5-benzylpyrazine]: the IC50 came to 5 µM.

For `COc1ccc(-c2nc(C)c(C)nc2-c2ccc(OC)cc2)cc1` [Example 10, 2,3-bis(p-methoxyphenyl)-5,6-dimethylpyrazine], the IC50 amounted to 0.92 µM.

Take `COc1ccc(-c2ncc(C)nc2-c2ccc(OC)cc2)cc1` [Example 2, 2,3-bis(p-methoxyphenyl)-5-methylpyrazine]: the IC50 was found to be 0.042 µM.

For `COc1ccc(Cc2cnc(-c3ccccc3)c(-c3ccccc3)n2)cc1` [Example 4, 2,3-Diphenyl-5-(p-methoxybenzyl)pyrazine], the IC50 is 35 µM.

On to `COc1ccc(-c2ncc(Cc3cccs3)nc2-c2ccc(OC)cc2)cc1` [Example 9, 2,3-Bis(p-methoxyphenyl)-5-(2-thienylmethyl)pyrazine], for which the IC50 is 0.79 µM.

`Cc1cnc(-c2ccc(Cl)cc2)c(-c2ccc(Cl)cc2)n1` [Example 1, 2,3-bis(p-chlorophenyl)-5-methylpyrazine]: the IC50 stood at 20 µM.

In the case of `COc1cccc(Cc2cnc(-c3ccccc3)c(-c3ccccc3)n2)c1` [Example 5, 2,3-Diphenyl-5-(m-methoxybenzyl)pyrazine], the IC50 was 14 µM.

`COc1ccc(-c2ncc(C(C)C)nc2-c2ccc(OC)cc2)cc1` [Example 7, 2,3-Bis(p-methoxyphenyl)-5-isopropylpyrazine]: the IC50 amounted to 0.79 µM.

For the molecule `c1ccc(Cc2cnc(-c3ccccc3)c(-c3ccccc3)n2)cc1` [Example 3, 2,3-diphenyl-5-benzylpyrazine], the IC50 was 46 µM.

As to `CCc1cnc(-c2ccc(OC)cc2)c(-c2ccc(OC)cc2)n1` [Example 8, 2,3-bis(p-methoxyphenyl)-5-ethylpyrazine], the IC50 is 0.64 µM.

The same test, now with this note: Oryctolagus cuniculus, 0.05 h, read-out: 50% aggregation inhibitory concentration, Arachidonic acid.
Regarding `CC(=O)Oc1ccccc1C(=O)O` [Aspirin, acetylsalicylic acid, reference compound], the IC50 was found to be 14 µM.

Staying with this test, now noted: Oryctolagus cuniculus, 0.05 h, read-out: 50% aggregation inhibitory concentration, Collagen.
For the molecule `CC(=O)Oc1ccccc1C(=O)O` [Aspirin, acetylsalicylic acid, reference compound], the IC50 stood at 560 µM.
